Article PMC5830399, “Aggregating sequences that occur in many proteins constitute weak spots of bacterial proteostasis” (Nature Communications, 2018)
Converted amounts (≈) assume the structure as drawn. Peptide text beside a SMILES is read from it. * marks the point of attachment. FITC = O=C1OC2(c3ccc(O)cc3Oc3cc(O)ccc32)c2ccc(NC(=S)*)cc21

Assays:
Type in all cases: cell-based, Escherichia coli
E. coli O157:H7 [1] = conditions: E. coli O157(:H7); HPLC-purified peptide; broth microdilution (EUCAST), LB, overnight 37 °C, OD 590 nm
Protocol: The MICs of active peptides were determined via the Broth microdilution assay according to the EUCAST guideline, which was performed in 96-well polystyrene flat bottom microtiter plates (BD Biosciences). Briefly, a single colony was inoculated into 5 mL LB medium and grown to the end-exponential growth phase in a shaking incubator at 37 °C. Cultures were subsequently diluted to an OD600 (optical density) of 0.002 ([…]) in fresh LB medium. One hundred microliters of LB medium with different concentration of peptides ranging from 100 to 0.75 µg/mL were serially diluted to the sterile 96-well plate (at least three wells in each plate). Afterwards, 100 µL of the diluted bacteria were pipetted into 96-well plates containing different concentration of peptides. In each plate, the grown bacteria with the maximum concentration of carrier and medium were considered as positive and negative controls, respectively. Thereafter, 96-well plates were statically incubated overnight at 37 °C to allow bacterial growth. OD was measured at 590 nm for 1 s using a multipurpose ultraviolet–visible plate reader, and the absorbance of the growth bacteria was measured using a Perkin Elmer spectrophotometer (1420 Multilabel Counter Victor 3).

E. coli O157 = conditions: HPLC-purified peptide
Description: In order to investigate whether APR redundancy does result in proteostatic collapse, we selected resynthesized and high-performance liquid chromatography (HPLC)-purified four positive peptides from the screen, P2, P5, P14, and P105, as well as three negative peptides, P3, P4, and P11, and confirmed their MIC and minimum bactericidal concentration (MBC) values (Table 1). […] These IBs, which are also called large polar aggregates, could be stained with pentameric formyl thiophene acetic acid (pFTAA, Fig. 1j and supplementary Fig. 3), an extensively characterized amyloid-specific dye[20]–[22], which specifically binds to amyloid-like aggregates as well as disease-associated protein IBs[22]. This IB-staining pattern could be observed for all bactericidal peptides, but not for any of the other peptides, although some other pFTAA-positive structures could be discerned (Supplementary Fig. 3). We confirmed the cross-β-structure content of IB using thioflavin-T staining and correlative atomic force microscopy nanoimaging and Fourier transform infrared spectroscopy (Supplementary Note 2 and Supplementary Fig. 4).

E. coli O157:H7 [2] = test: Flow cytometry of bacteria treated with FITC peptides (uptake) and propidium iodide; conditions: for cells positive for FITC (peptide uptake): E. coli O157:H7, FITC-labeled peptide at MIC, flow cytometry; for PI-positive cells (membrane permeabilization): E. coli O157:H7, peptide at MIC, N = 4
Protocol: Using a double staining technique with propidium iodide (PI) and FITC peptides, killing rate and peptide uptake were evaluated in a two-dimensional analysis. Briefly, end-exponential growth phase E. coli O157 cells (10^8 CFU/mL) were washed with PBS and treated with peptides (P2 or Pro2/ FITC labeled) at MIC value for different time periods. Treated bacteria were again washed with PBS buffer three times. One microliter of PI (Invitrogen) was added to the bacteria, and after incubation for 5 min, the mixture was aliquoted (500 µL) into FACS tubes. To correlate the activity of the peptides with cell death, the fluorescence intensity was measured in two channels using the Gallios^TM Flow Cytometer, PI: excitation 536 nm and emission 617 nm, FITC: excitation 490 nm and emission 525 nm. Heated bacteria at 90 °C for 10 min were used as PI-positive control.

SMILES	MIC (E. coli O157:H7 [1]) [µg/mL]	MBC (E. coli O157) [µg/mL]	cells positive for FITC (peptide uptake) (E. coli O157:H7 [2]; after 15 min, N = 4, mean and s.d.) [%]	cells positive for FITC (peptide uptake) (E. coli O157:H7 [2]; after 1 h and beyond) [%]	PI-positive cells (membrane permeabilization) (E. coli O157:H7 [2]; after 15 min) [%]	PI-positive cells (membrane permeabilization) (E. coli O157:H7 [2]; after 3 h) [%]
CC(C)C[C@H](NC(=O)[C@H](C)NC(=O)[C@H](CCCNC(=N)N)NC(=O)[C@@H]1CCCN1C(=O)[C@H](CCCNC(=N)N)NC(=O)[C@H](CCCNC(=N)N)NC(=O)[C@H](CC(C)C)NC(=O)[C@H](CC(C)C)NC(=O)[C@@H](NC(=O)[C@@H](NC(=O)[C@H](CC(C)C)NC(=O)[C@H](CC(C)C)NC(=O)[C@H](C)NC(=O)[C@H](CCCNC(=N)N)NC(=O)[C@@H](N)CCCNC(=N)N)[C@@H](C)O)[C@@H](C)O)C(=O)N[C@@H](CC(C)C)C(=O)N[C@H](C(=O)N[C@H](C(=O)N[C@@H](CC(C)C)C(=O)N[C@@H](CC(C)C)C(=O)N[C@@H](CCCNC(=N)N)C(=O)N[C@@H](CCCNC(=N)N)C(=O)O)[C@@H](C)O)[C@@H](C)O [P5R] (H-RRALLTTLLRRPRALLTTLLRR-OH)	12 (≈ 4.51 µM)	12 (≈ 4.51 µM)				
CC(C)C[C@H](NC(=O)CNC(=O)[C@H](CCCNC(=N)N)NC(=O)[C@@H]1CCCN1C(=O)[C@H](CCCNC(=N)N)NC(=O)[C@H](CCCNC(=N)N)NC(=O)[C@@H](NC(=O)[C@H](CC(C)C)NC(=O)[C@H](C)NC(=O)[C@H](CC(C)C)NC(=O)CNC(=O)[C@H](CC(C)C)NC(=O)CNC(=O)[C@H](CCCNC(=N)N)NC(=S)Nc1ccc2c(c1)C(=O)OC21c2ccc(O)cc2Oc2cc(O)ccc21)C(C)C)C(=O)NCC(=O)N[C@@H](CC(C)C)C(=O)N[C@@H](C)C(=O)N[C@@H](CC(C)C)C(=O)N[C@H](C(=O)N[C@@H](CCCNC(=N)N)C(=O)N[C@@H](CCCNC(=N)N)C(=O)O)C(C)C [FITC-P2] ({FITC}-RGLGLALVRRPRGLGLALVRR-OH; N-terminus and C-terminus assumed)			97.7 ± 2.9	~100	2.1 ± 1.3	85 ± 13.2
CC(C)C[C@H](NC(=O)[C@H](C)NC(=O)[C@@H](N)CCCNC(=N)N)C(=O)N[C@@H](CC(C)C)C(=O)N[C@@H](CCCNC(=N)N)C(=O)N[C@H](C(=O)N[C@@H](CC(C)C)C(=O)N[C@@H](CC(C)C)C(=O)N[C@@H](CCCNC(=N)N)C(=O)N[C@@H](CCCNC(=N)N)C(=O)N1CCC[C@H]1C(=O)N[C@@H](CCCNC(=N)N)C(=O)N[C@@H](C)C(=O)N[C@@H](CC(C)C)C(=O)N[C@@H](CC(C)C)C(=O)N[C@H](C(=O)N[C@H](C(=O)N[C@@H](CC(C)C)C(=O)N[C@@H](CC(C)C)C(=O)N[C@@H](CCCNC(=N)N)C(=O)N[C@@H](CCCNC(=N)N)C(=O)O)[C@@H](C)O)[C@@H](C)O)[C@@H](C)O [P105] (H-RALLRTLLRRPRALLTTLLRR-OH)	12 (≈ 4.69 µM)	12 (≈ 4.69 µM)				
CC(C)C[C@H](NC(=O)[C@H](C)NC(=O)[C@H](CCCNC(=N)N)NC(=O)[C@@H]1CCCN1C(=O)[C@H](CCCNC(=N)N)NC(=O)[C@H](CCCNC(=N)N)NC(=O)[C@H](CC(C)C)NC(=O)[C@H](CC(C)C)NC(=O)[C@@H](NC(=O)[C@@H](NC(=O)[C@H](CC(C)C)NC(=O)[C@H](CC(C)C)NC(=O)[C@H](C)NC(=O)[C@@H](N)CCCNC(=N)N)[C@@H](C)O)[C@@H](C)O)C(=O)N[C@@H](CC(C)C)C(=O)N[C@H](C(=O)N[C@H](C(=O)N[C@@H](CC(C)C)C(=O)N[C@@H](CC(C)C)C(=O)N[C@@H](CCCNC(=N)N)C(=O)N[C@@H](CCCNC(=N)N)C(=O)O)[C@@H](C)O)[C@@H](C)O [P5] (H-RALLTTLLRRPRALLTTLLRR-OH)	6 (≈ 2.4 µM)	6 (≈ 2.4 µM)				
CC(C)C[C@H](NC(=O)CNC(=O)[C@H](CCCNC(=N)N)NC(=O)[C@@H]1CCCN1C(=O)[C@H](CCCNC(=N)N)NC(=O)[C@H](CCCNC(=N)N)NC(=O)[C@H](C)NC(=O)[C@H](CC(C)C)NC(=O)[C@H](CC(C)C)NC(=O)[C@H](C)NC(=O)[C@H](CC(C)C)NC(=O)[C@H](CC(C)C)NC(=O)CNC(=O)[C@@H](N)CCCNC(=N)N)C(=O)N[C@@H](CC(C)C)C(=O)N[C@@H](C)C(=O)N[C@@H](CC(C)C)C(=O)N[C@@H](CC(C)C)C(=O)N[C@@H](C)C(=O)N[C@@H](CCCNC(=N)N)C(=O)N[C@@H](CCCNC(=N)N)C(=O)O [P14] (H-RGLLALLARRPRGLLALLARR-OH)	6 (≈ 2.55 µM)	6 (≈ 2.55 µM)				
CC(C)C[C@H](NC(=O)CNC(=O)[C@H](CCCNC(=N)N)NC(=O)[C@@H]1CCCN1C(=O)[C@H](CCCNC(=N)N)NC(=O)[C@H](CCCNC(=N)N)NC(=O)[C@@H]1CCCN1C(=O)[C@H](CC(C)C)NC(=O)[C@H](C)NC(=O)[C@@H]1CCCN1C(=O)CNC(=O)[C@H](CC(C)C)NC(=O)CNC(=O)[C@@H](N)CCCNC(=N)N)C(=O)NCC(=O)N1CCC[C@H]1C(=O)N[C@@H](C)C(=O)N[C@@H](CC(C)C)C(=O)N1CCC[C@H]1C(=O)N[C@@H](CCCNC(=N)N)C(=O)N[C@@H](CCCNC(=N)N)C(=O)O [P2Pro] (H-RGLGPALPRRPRGLGPALPRR-OH)		>100				
